Experimental data taken from the supplement of paper PMC10307832.

Columns and labels:
Assay in all cases: relative viability (nuclei count vs DMSO), 5 days (fraction); higher = more cells survive
LOU-NH91 = tested on: LOU-NH91
Outline: (§1)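 Each reported value is a median over duplicate plates. It expresses relative viability: treated-well nuclei count divided by vehicle-well nuclei count. Lung cancer cell lines in 1536-well plates were dosed by pin tool a day after seeding, alone with one drug or with a fixed anchor-drug dose plus five library-drug doses (not always all listed) in √10 steps, and nuclei were counted after 5 days.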

NCI-H23 = tested on: NCI-H23
Outline: as §1

SK-LU-1 = tested on: SK-LU-1
Outline: as §1

NCI-H2023 = tested on: NCI-H2023
Outline: as §1

PC-3 [JPC-3] = tested on: PC-3 [JPC-3]
Outline: as §1

NCI-H460 = tested on: NCI-H460
Outline: as §1

LCLC-97TM1 = tested on: LCLC-97TM1
Outline: as §1

NCI-H1915 = tested on: NCI-H1915
Outline: as §1

NCI-H2342 = tested on: NCI-H2342
Outline: as §1

NCI-H2170 = tested on: NCI-H2170
Outline: as §1

NCI-H2126 = tested on: NCI-H2126
Outline: as §1

NCI-H1793 = tested on: NCI-H1793
Outline: as §1

LXF-289 = tested on: LXF-289
Outline: as §1

NCI-H441 = tested on: NCI-H441
Outline: as §1

BEN = tested on: BEN
Outline: as §1

LU99A = tested on: LU99A
Outline: as §1

NCI-H1666 = tested on: NCI-H1666
Outline: as §1

A-427 = tested on: A-427
Outline: as §1

HARA = tested on: HARA
Outline: as §1

NCI-H1395 = tested on: NCI-H1395
Outline: as §1

NCI-H322M = tested on: NCI-H322M
Outline: as §1

Q: `COCC1(CO)C(=O)C2CCN1CC2` (stereo not given) [PRIMA-1MET] + CC(=O)Nc1cccc(-n2c(=O)n(C3CC3)c(=O)c3c(Nc4ccc(I)cc4F)n(C)c(=O)c(C)c32)c1 [Trametinib] (partner 0.02 µM) was tested. Which relative viability (LOU-NH91; first compound 0.2 µM) did it give?
A: 0.842

Q: What about the relative viability (LOU-NH91; first compound 0.6325 µM) of the same compound?
A: 0.801

Q: What about the relative viability (LOU-NH91; first compound 2 µM) of the same compound?
A: 0.793

Q: And the relative viability (LOU-NH91; first compound 6.325 µM)?
A: 0.831

Q: And the relative viability (LOU-NH91; first compound 20 µM)?
A: 0.535

Q: What about the relative viability (NCI-H23; first compound 0.2 µM) of the same compound?
A: 0.281

Q: What about the relative viability (NCI-H23; first compound 0.6325 µM) of the same compound?
A: 0.37

Q: And the relative viability (NCI-H23; first compound 2 µM)?
A: 0.273

Q: And the relative viability (NCI-H23; first compound 6.325 µM)?
A: 0.328

Q: What about the relative viability (NCI-H23; first compound 20 µM) of the same compound?
A: 0.112

Q: What about the relative viability (SK-LU-1; first compound 0.2 µM) of the same compound?
A: 0.308

Q: And the relative viability (SK-LU-1; first compound 0.6325 µM)?
A: 0.488

Q: What about the relative viability (SK-LU-1; first compound 2 µM) of the same compound?
A: 0.35

Q: What about the relative viability (SK-LU-1; first compound 6.325 µM) of the same compound?
A: 0.382

Q: What about the relative viability (SK-LU-1; first compound 20 µM) of the same compound?
A: 0.528

Q: What about the relative viability (NCI-H2023; first compound 0.2 µM) of the same compound?
A: 0.681

Q: What about the relative viability (NCI-H2023; first compound 0.6325 µM) of the same compound?
A: 0.556

Q: And the relative viability (NCI-H2023; first compound 2 µM)?
A: 0.603

Q: And the relative viability (NCI-H2023; first compound 6.325 µM)?
A: 0.711

Q: And the relative viability (NCI-H2023; first compound 20 µM)?
A: 0.546

Q: What about the relative viability (PC-3 [JPC-3]; first compound 0.2 µM) of the same compound?
A: 0.757

Q: What about the relative viability (PC-3 [JPC-3]; first compound 0.6325 µM) of the same compound?
A: 0.667

Q: What about the relative viability (PC-3 [JPC-3]; first compound 2 µM) of the same compound?
A: 0.733

Q: What about the relative viability (PC-3 [JPC-3]; first compound 6.325 µM) of the same compound?
A: 0.696

Q: And the relative viability (PC-3 [JPC-3]; first compound 20 µM)?
A: 0.614

Q: What about the relative viability (NCI-H460; first compound 0.2 µM) of the same compound?
A: 0.0362

Q: What about the relative viability (NCI-H460; first compound 0.6325 µM) of the same compound?
A: 0.0885

Q: And the relative viability (NCI-H460; first compound 2 µM)?
A: 0.0744

Q: What about the relative viability (NCI-H460; first compound 6.325 µM) of the same compound?
A: 0.136

Q: What about the relative viability (NCI-H460; first compound 20 µM) of the same compound?
A: 0.0091

Q: What about the relative viability (LCLC-97TM1; first compound 0.2 µM) of the same compound?
A: 0.133

Q: What about the relative viability (LCLC-97TM1; first compound 0.6325 µM) of the same compound?
A: 0.163

Q: And the relative viability (LCLC-97TM1; first compound 2 µM)?
A: 0.179

Q: What about the relative viability (LCLC-97TM1; first compound 6.325 µM) of the same compound?
A: 0.151

Q: What about the relative viability (LCLC-97TM1; first compound 20 µM) of the same compound?
A: 0.197

Q: And the relative viability (NCI-H1915; first compound 0.2 µM)?
A: 0.166

Q: And the relative viability (NCI-H1915; first compound 0.6325 µM)?
A: 0.246

Q: What about the relative viability (NCI-H1915; first compound 2 µM) of the same compound?
A: 0.248

Q: And the relative viability (NCI-H1915; first compound 6.325 µM)?
A: 0.218

Q: And the relative viability (NCI-H1915; first compound 20 µM)?
A: 0.31

Q: What about the relative viability (NCI-H2342; first compound 0.2 µM) of the same compound?
A: 0.77

Q: And the relative viability (NCI-H2342; first compound 0.6325 µM)?
A: 1.06

Q: And the relative viability (NCI-H2342; first compound 6.325 µM)?
A: 0.755

Q: What about the relative viability (NCI-H2342; first compound 20 µM) of the same compound?
A: 0.67

Q: What about the relative viability (NCI-H2170; first compound 0.2 µM) of the same compound?
A: 0.914

Q: And the relative viability (NCI-H2170; first compound 0.6325 µM)?
A: 0.911

Q: And the relative viability (NCI-H2170; first compound 2 µM)?
A: 0.887

Q: What about the relative viability (NCI-H2170; first compound 6.325 µM) of the same compound?
A: 0.975

Q: And the relative viability (NCI-H2170; first compound 20 µM)?
A: 0.964

Q: What about the relative viability (NCI-H2126; first compound 0.2 µM) of the same compound?
A: 0.604

Q: What about the relative viability (NCI-H2126; first compound 0.6325 µM) of the same compound?
A: 0.47

Q: And the relative viability (NCI-H2126; first compound 2 µM)?
A: 0.597

Q: And the relative viability (NCI-H2126; first compound 6.325 µM)?
A: 0.577

Q: And the relative viability (NCI-H2126; first compound 20 µM)?
A: 0.543

Q: What about the relative viability (NCI-H1793; first compound 0.2 µM) of the same compound?
A: 0.365

Q: What about the relative viability (NCI-H1793; first compound 0.6325 µM) of the same compound?
A: 0.41

Q: What about the relative viability (NCI-H1793; first compound 6.325 µM) of the same compound?
A: 0.361

Q: What about the relative viability (NCI-H1793; first compound 20 µM) of the same compound?
A: 0.517

Q: And the relative viability (LXF-289; first compound 0.2 µM)?
A: 0.582

Q: What about the relative viability (LXF-289; first compound 0.6325 µM) of the same compound?
A: 0.591

Q: And the relative viability (LXF-289; first compound 2 µM)?
A: 0.67

Q: And the relative viability (LXF-289; first compound 6.325 µM)?
A: 0.651

Q: What about the relative viability (LXF-289; first compound 20 µM) of the same compound?
A: 0.659

Q: And the relative viability (NCI-H441; first compound 0.2 µM)?
A: 0.418

Q: And the relative viability (NCI-H441; first compound 0.6325 µM)?
A: 0.297

Q: What about the relative viability (NCI-H441; first compound 2 µM) of the same compound?
A: 0.369

Q: What about the relative viability (NCI-H441; first compound 6.325 µM) of the same compound?
A: 0.399

Q: And the relative viability (NCI-H441; first compound 20 µM)?
A: 0.267

Q: What about the relative viability (BEN; first compound 0.2 µM) of the same compound?
A: 1.12

Q: And the relative viability (BEN; first compound 0.6325 µM)?
A: 0.926

Q: What about the relative viability (BEN; first compound 6.325 µM) of the same compound?
A: 1.03

Q: What about the relative viability (BEN; first compound 20 µM) of the same compound?
A: 1.07

Q: And the relative viability (LU99A; first compound 0.2 µM)?
A: 0.314

Q: And the relative viability (LU99A; first compound 0.6325 µM)?
A: 0.573

Q: And the relative viability (LU99A; first compound 2 µM)?
A: 0.502

Q: And the relative viability (LU99A; first compound 6.325 µM)?
A: 0.261

Q: What about the relative viability (LU99A; first compound 20 µM) of the same compound?
A: 0.21

Q: And the relative viability (NCI-H1666; first compound 0.2 µM)?
A: 0.886

Q: And the relative viability (NCI-H1666; first compound 0.6325 µM)?
A: 0.815

Q: What about the relative viability (NCI-H1666; first compound 2 µM) of the same compound?
A: 0.965

Q: And the relative viability (NCI-H1666; first compound 6.325 µM)?
A: 0.759

Q: What about the relative viability (NCI-H1666; first compound 20 µM) of the same compound?
A: 0.877

Q: And the relative viability (A-427; first compound 0.2 µM)?
A: 0.533

Q: And the relative viability (A-427; first compound 0.6325 µM)?
A: 0.585

Q: And the relative viability (A-427; first compound 2 µM)?
A: 0.786

Q: What about the relative viability (A-427; first compound 6.325 µM) of the same compound?
A: 0.692

Q: And the relative viability (A-427; first compound 20 µM)?
A: 0.785

Q: And the relative viability (HARA; first compound 0.2 µM)?
A: 0.403

Q: What about the relative viability (HARA; first compound 0.6325 µM) of the same compound?
A: 0.754

Q: What about the relative viability (HARA; first compound 2 µM) of the same compound?
A: 0.647

Q: And the relative viability (HARA; first compound 6.325 µM)?
A: 0.529

Q: And the relative viability (HARA; first compound 20 µM)?
A: 0.736

Q: And the relative viability (NCI-H1395; first compound 0.2 µM)?
A: 1.14

Q: What about the relative viability (NCI-H1395; first compound 2 µM) of the same compound?
A: 0.979

Q: What about the relative viability (NCI-H1395; first compound 6.325 µM) of the same compound?
A: 1.02

Q: What about the relative viability (NCI-H1395; first compound 20 µM) of the same compound?
A: 1.05

Q: What about the relative viability (NCI-H322M; first compound 0.2 µM) of the same compound?
A: 0.484

Q: What about the relative viability (NCI-H322M; first compound 0.6325 µM) of the same compound?
A: 0.467

Q: What about the relative viability (NCI-H322M; first compound 6.325 µM) of the same compound?
A: 0.468

Q: What about the relative viability (NCI-H322M; first compound 20 µM) of the same compound?
A: 0.45
